system: human liver microsomes, metabolic stability half-life; assay: NCATS Human Liver Microsomal (HLM) Stability Profiling; conditions: higher = more stable; screened at 1 µM (by protocol)
Summary of the method: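 Substrate depletion (in vitro t1/2): 1 µM compound with 0.5 mg/mL microsomes and NADPH regenerating system, phosphate buffer pH 7.4, 37 °C. Sampled at 0, 5, 10, 15, 30, 60 min into cold acetonitrile with albendazole internal standard for MS quantification.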

Compared with `CCN1CCc2nc(N)oc2CC1`, `CCc1ccc(C(=O)C(C)CN2CCCCC2)cc1` (configuration not stated) is 23-fold lower in half-life: 112 min for the first, 4.87 min for the second.

First: O=c1c2cccnc2n(-c2cccc([N+](=O)[O-])c2)c(=O)n1Cc1ccncc1
Second: Cc1c(-c2ccnn2C)cc(C(=O)NCc2ccc(S(C)(=O)=O)cn2)c(=O)n1-c1cccc(C(F)(F)F)c1
The half-life of the first is lower: 24.5 min for the first, greater than 120 min for the second.

`NC(=NCCCCCCN=C(N)/N=C(\N)Nc1ccc(Cl)cc1)/N=C(\N)Nc1ccc(Cl)cc1` and `CC(C)c1c(NC(=O)Nc2ccc(Cl)cc2)c(=O)n(-c2ccccc2)n1C` cannot be ordered by half-life: greater than 120 min for the first, greater than 120 min for the second.

First: CN1CCN(c2cccc(Nc3nc4c(-c5ccc(S(C)(=O)=O)cc5)cccn4n3)c2)CC1
Second: COc1ccc(N(C(=O)Nc2c(C)cccc2C)c2cc(Nc3ccc(N4CCN(C)CC4)cc3)ncn2)c(OC)c1
The half-life of the first is higher: greater than 120 min for the first, 17.1 min for the second.

First: COc1cc(OC)cc(OC)c1
Second: COP(=S)(OC)Oc1ccc(SC)c(C)c1
The half-life of the first is 4.1-fold higher: 18.1 min for the first, 4.44 min for the second.

`CCC[C@H](N[C@@H](C)C(=O)N1[C@H](C(=O)O)C[C@@H]2CCCC[C@@H]21)C(=O)OCC` and `COc1cc2c(cc1OC)CN(C(=O)[C@H](C)N[C@@H](CCc1ccccc1)C(=O)O)[C@H](C(=O)O)C2` cannot be ordered by half-life: greater than 120 min for the first, greater than 120 min for the second.

First: CCC(=C(c1ccc(OCCN2CCCC2)cc1)c1ccc(OCCN2CCCC2)cc1)c1ccccc1
Second: CCN1CC(CCN2CCOCC2)C(c2ccccc2)(c2ccccc2)C1=O (configuration not stated)
The half-life of the first is higher: greater than 120 min for the first, 33.9 min for the second.

`CCC(C(=O)O)c1ccc(N2Cc3ccccc3C2=O)cc1` (configuration not stated) and `CCN(Cc1ccncc1)C(=O)[C@@H](CO)c1ccccc1` cannot be ordered by half-life: greater than 120 min for the first, greater than 120 min for the second.

First: COc1cc(Nc2nc3ccccc3nc2NS(=O)(=O)c2ccc(NC(=O)c3ccc(OC)c(C)c3)cc2)cc(OC)c1
Second: COc1ccc2c(CNCCc3ccccc3OC)c(C(=O)O)n(Cc3ccc(F)cc3Cl)c2c1
The half-life of the first is higher: greater than 120 min for the first, 1.79 min for the second.

`CN1[C@@H]2CC[C@H]1CC(OC(=O)c1c[nH]c3ccccc13)C2` (some centres not stated) and `CC(=O)N1CCC(Cc2ccc(C(=O)NC3CC3)cc2)CC1` cannot be ordered by half-life: greater than 120 min for the first, greater than 120 min for the second.

Compared with `COc1ccc(CN(CCN(C)C)c2ncccn2)cc1`, `CN(C)[S+](=O)([O-])c1ccc([S+](=O)([O-])N(Cc2ccccc2)Cc2ccccn2)cc1` is 2-fold lower in half-life: 8.72 min for the first, 4.28 min for the second.

First: CC(C)(C)CC(=O)OCC(=O)[C@@]1(O)CC[C@H]2[C@@H]3CCC4=CC(=O)C=C[C@]4(C)[C@H]3[C@@H](O)C[C@@]21C
Second: CC1(C)O[C@@H]2C[C@H]3[C@@H]4CCC5=CC(=O)C=C[C@]5(C)[C@@]4(F)[C@@H](O)C[C@]3(C)[C@]2(C(=O)CO)O1
The half-life of the first is 13-fold lower: 2.13 min for the first, 27.3 min for the second.

First: CC1CCN(C(c2ccc(F)cc2)c2ccc(C(C)C(=O)O)cc2-c2ccc(C(F)(F)F)cc2)CC1 (configuration not stated)
Second: CC(C(=O)O)c1ccc2c(c1)[nH]c1ccc(Cl)cc12 (configuration not stated)
The half-life of the first is lower: 115 min for the first, greater than 120 min for the second.

First: O=C(CCc1ccccc1)N1CCC(O)(Cn2cnc3cc(Cl)ccc3c2=O)CC1
Second: OC1(c2ccc(Cl)cc2)c2ccccc2C2=NCCN21 (configuration not stated)
The half-life of the first is 24-fold lower: 3.16 min for the first, 74.4 min for the second.

`CN(C)CCC[C@@]1(c2ccc(F)cc2)OCc2cc(C#N)ccc21` and `Cc1cc(Nc2nc(N[C@@H](C)c3ccc(F)cc3)c(C#N)cc2F)n[nH]1` cannot be ordered by half-life: greater than 120 min for the first, greater than 120 min for the second.

`O=C1CC2(CCCC2)CC(=O)N1CCNC[C@H]1COc2ccccc2O1` and `CCN(CC)C(=O)c1ccc(Nc2nc(OCC3CCCCC3)c3[nH]cnc3n2)cc1` are within 1.5-fold of each other in half-life: 8.26 min for the first, 8.96 min for the second.

Compared with `N#C/C(=C1\SCC(c2ccccc2Cl)S1)n1ccnc1` (configuration not stated), `CCNCc1nc2c(N)nc3ccccc3c2n1CC(C)(C)O` is higher in half-life: 86.2 min for the first, greater than 120 min for the second.

Compared with `CC(C)(C)NCC(O)COc1cccc2c1CCC(=O)N2` (configuration not stated), `CCOc1cc(NC(C)=O)ccc1C(=O)OC` is lower in half-life: greater than 120 min for the first, 6.75 min for the second.

Going from `Cc1cc(O)c2c(c1)C(=O)c1cccc(O)c1C2=O` to `CC(=O)c1ccc(O)c(C(N)=O)c1`, the half-life rises from 1.86 min to greater than 120 min.

Going from `CCc1cc(Cl)c(OC)c(C(=O)NC[C@@H]2CCCN2CC)c1O` to `CCOCCCNC(=O)C(=O)Nc1c2c(nn1-c1ccc(OC)cc1)CSC2`, the half-life rises from 13.6 min to 42.3 min (3.1-fold).

`COc1cc2c(c(OC)c1OC)-c1ccc(OC)c(=O)cc1[C@@H](NC(C)=O)CC2` and `C[C@H]1COc2c(C3(N)CC3)c(F)cc3c(=O)c(C(=O)O)cn1c23` cannot be ordered by half-life: greater than 120 min for the first, greater than 120 min for the second.

Going from `CC(C)(C)c1cnc(CSc2cnc(NC(=O)C3CCNCC3)s2)o1` to `CC(=O)c1ccc(N2CCN(c3ncnc4c3cnn4C)CC2)cc1`, the half-life falls from greater than 120 min to 109 min.

`Nc1ccccc1NC(=O)c1ccc(CNc2nccc(-c3cccnc3)n2)cc1` and `CCCn1cc2c(nc(NC(=O)Nc3ccc(OC)cc3)n3nc(-c4ccco4)nc23)n1` cannot be ordered by half-life: greater than 120 min for the first, greater than 120 min for the second.

Going from `NC(=O)[C@H]1CCS[C@@H]2C[C@]3(CCCN3C(=O)Cc3ccc(NC(=O)COc4ccc(Cl)cc4Cl)cc3)C(=O)N12` to `Cc1cn(C[C@H](N)C(=O)O)c(=O)n(Cc2ccsc2C(=O)O)c1=O`, the half-life rises from 7.68 min to 53.1 min (6.9-fold).

First: CCN(CC)CCCCCCNc1cc(OC)cc2c(C)ccnc12
Second: N#Cc1ccnc(Nc2cc(C3CCN(C4COC4)CC3)cc(N3CCC(F)(F)C3)n2)c1
The half-life of the first is higher: greater than 120 min for the first, 29.3 min for the second.

First: CC(C)COC[C@H](CN(Cc1ccccc1)c1ccccc1)N1CCCC1
Second: CO/N=C(\C(=O)O)c1csc(NC(=O)CCl)n1
The half-life of the first is 1.9-fold higher: 21.1 min for the first, 11.4 min for the second.

Reference: PubChem BioAssay AID1963597 (National Center for Advancing Translational Sciences (NCATS), 2024)
